{"source": "patent US20260183274A1", "about": "“PDK1 REGULATORY COMPOUND AND COMPOSITION CONTAINING THE SAME” (PROVIBIO CO., LTD., priority 2024, published 2026)", "key": {"[1]": {"test_system": "Human Kidney Cancer cell line, ACHN", "experiment": "Relative cell viability CCK-8, ACHN", "format": "cell-based", "conditions": "48 hours", "method": "Similarly, human-derived cervical cancer cell line HeLa and renal cancer cell line ACHN, obtained from the Korean Cell Bank, were cultured in DMEM medium containing 10% FBS, 100 U/mL penicillin, and 100 μg/mL streptomycin.\n(§1) Following stabilization, the cells were harvested using Trypsin-EDTA treatment, centrifuged at 1,200 rpm for 3 minutes, the supernatant was removed, and the cells were resuspended in the same medium. They were then seeded into a 96-well plate (Costar 96-well cell culture plate, Corning) at 100 μL per well, and the conditions were adjusted as indicated in Table 5.\n(§2) The cells were cultured in a 5% CO2 incubator at 37° C. for 24 hours, and after stabilization of the cells, each plate was washed with 200 μL of PBS per well and treated with 50 μL of culture medium per well.\nThe compounds according to the present invention or the control group (DMSO) were added at concentrations of 0, 10, 30, and 50 μM in 50 μL aliquots to the plates, and the plates were cultured at 37° C. in a 5% CO2 incubator for 48 hours.\n(§3) After that, 10 μL of CCK-8 was added to each well, and the plate was incubated again at 37° C. in a 5% CO2 incubator for 2 hours.\n(§4) In other words, when the survival rate of untreated cells (DMSO) is set at 100%, the relative cell survival rate in each group treated with the drug at different concentrations is indicated."}, "[2]": {"test_system": "Human Melanoma cancer cell, Malme-3M", "experiment": "Relative cell viability CCK-8, Malme-3M", "format": "cell-based", "conditions": "48 hours", "method": "(§5) Human-derived breast cancer cell line MCF-7, human-derived lung cancer cell line A549, human-derived colorectal cancer cell line HCT-116, human pancreatic cancer cell line AsPC-1, glioblastoma cell line A172, and melanoma cell line Malme-3M were obtained from the Korean Cell Bank. gastric cancer cell line SNU-719, and bladder cancer cell line T24 were cultured in RPMI-1640 medium containing 10% FBS.\nas §1, §2, §3, §4"}, "[3]": {"test_system": "Human multiple myeloma, KMS26", "experiment": "Relative cell viability, KMS26", "format": "cell-based", "conditions": "KMS26 cells, relative to untreated cells", "method": "as §3, §4"}, "[4]": {"test_system": "Human multiple myeloma, KMS34", "experiment": "Relative cell viability, KMS34", "format": "cell-based", "conditions": "KMS34 cells, 1 μM, relative to untreated cells", "method": "as §3, §4"}, "[5]": {"test_system": "Human Pancreas Adenocarcinoma cell line, AsPC-1", "experiment": "Relative cell viability CCK-8, AsPC-1", "format": "cell-based", "conditions": "48 hours; for viability at 1 µM: ASPC1, 1 μM; for viability at 10 µM: ASPC1, 10 μM; for viability at 30 µM: ASPC1, 30 μM; for viability at 50 µM: ASPC1, 50 μM", "method": "as §5, §1, §2, §3, §4"}, "[6]": {"test_system": "Balb/c mice with induced pulmonary fibrosis", "experiment": "Bleomycin-induced pulmonary fibrosis animal model", "format": "in vivo, mouse", "conditions": "vs BLM-treated group; for Collagen deposition (Masson's trichrome, Sirius red): FIG. 42; for Expression of α-SMA in lung tissue (IHC): FIG. 43", "from_the_text": "To evaluate the therapeutic efficacy of the compound according to the present invention against pulmonary fibrosis, an animal model of pulmonary fibrosis induced by bleomycin intratracheal administration was established.\nFor this purpose, 8-week-old male Balb/c mice were subjected to general anesthesia using an inhalation anesthetic (2-3% isoflurane in oxygen), followed by disinfection of the neck region, skin incision, and exposure of the trachea.\nBleomycin (Sigma-Aldrich, USA) was directly administered into the trachea at a concentration of 5 mg/kg in a solution of 100 μL.\nTwo days prior to Bleomycin administration, the compound of the present invention or the comparative drug was administered intraperitoneally at the specified concentration and dose, and the administration was continued once daily for a total of 14 days.\nThe experimental groups included Normal, Bleomycin alone (BLM), and BLM plus the compound of the present invention (BLM+GO88, 0.2 mg/kg).\nTen days later, the mice were euthanized humanely using carbon dioxide gas, the trachea was incised, and PBS was injected into the trachea to remove blood from the lungs.\nThe lung tissue washed with PBS was excised, fixed in 4% paraformaldehyde solution for 24 hours, and then paraffin blocks and tissue sections were prepared. The prepared sections were subjected to pathological analysis using H&E, Masson's trichrome, and Sirius red staining.\nAdditionally, immunohistochemical (IHC) staining was performed for α-SMA (α-smooth muscle actin), an indicator of lung fibroblast activation."}, "[7]": {"test_system": "Human multiple myeloma, KMS12PE", "experiment": "Relative cell viability, KMS12PE", "format": "cell-based", "conditions": "KMS-12-PE", "method": "as §3, §4"}, "[8]": {"test_system": "NHDF (Normal Human Dermal Fibroblast) cells", "experiment": "Doxorubicin/IGF-1 induced aging of NHDF cells (SA-β-gal, Ki-67 FACS)", "format": "cell-based", "conditions": "0.01, 1 μM; Doxorubicin 100 ng/ml + IGF-1 100 ng/ml, 7 days; FIG. 39", "method": "To confirm the anti-aging and rejuvenating effects of the compound GO15F of the present invention, a NHDF (Normal Human Dermal Fibroblast, Promocell) cell model was established by inducing aging with doxorubicin (Doxorubicin), and β-galactosidase activity and Ki-67 expression were analyzed in the cells. First, NHDF cells were seeded at 1×10^4 cells per well in a 12-well plate and stabilized for 24 hours. […] After pre-incubation, the medium was removed, and the cells were cultured for 7 days in medium containing Doxorubicin (100 ng/ml) and IGF-1 (100 ng/ml) with GO15F. During this process, the medium was replaced with fresh medium every 2 days. The cultured cells were washed with PBS, fixed with 1× fixation buffer for 15 minutes, washed again with PBS, and then 300 μL of 1× working SA-β-gal buffer was added to each well. The cells were incubated at 37° C. for 24 hours. After the reaction was terminated, the cells were washed with PBS, and the […] of β-gal-positive cells stained blue was observed and photographed using a light microscope. Additionally, to investigate the effect of the compound (GO15F) of the present invention on proliferation activity in aging-induced NHDF (Normal Human Dermal Fibroblast) cells, Ki-67 expression was measured via FACS analysis. First, NHDF cells were seeded at 1×10^4 cells per well in a 12-well plate and stabilized for 24 hours. […]"}}, "data": [{"smiles": "Nc1ncccc1C(=O)NCCCCCCCCCCCCN1CCNCC1", "note": "[Compound 5, 2-Amino-N-(12-(piperazin-1-yl)dodecyl)-nicotinamide]", "values": [{"measurement": "viability at 1 µM", "setting": "[1]", "value": 29.5, "unit": "%"}, {"measurement": "viability at 10 µM", "setting": "[1]", "value": 30, "unit": "%"}, {"measurement": "viability at 30 µM", "setting": "[1]", "value": 29.2, "unit": "%"}, {"measurement": "viability at 50 µM", "setting": "[1]", "value": 28.3, "unit": "%"}]}, {"smiles": "CC1(C)CN(CCCCCCCCCCCCC(=O)Nc2nc(N)c3[nH]cnc3n2)CCO1", "note": "[Compound 11, 12-[4-(2,2-dimethylmorpholin-4-yl)]dodecyl-N-(6-aminopurine-2-yl) carboxamide]", "values": [{"measurement": "Relative cell viability (%), Malme-3M", "setting": "[2]; 1 μM", "value": 44.06, "unit": "%"}, {"measurement": "Relative cell viability (%), Malme-3M", "setting": "[2]; 10 μM", "value": 37.40, "unit": "%"}, {"measurement": "Relative cell viability (%), Malme-3M", "setting": "[2]; 30 μM", "value": 36.80, "unit": "%"}, {"measurement": "Relative cell viability (%), Malme-3M", "setting": "[2]; 50 μM", "value": 38.87, "unit": "%"}, {"measurement": "Relative cell viability (%)", "setting": "[3]; 1 μM", "value": 31.19, "unit": "%"}, {"measurement": "Relative cell viability (%)", "setting": "[4]", "value": 26.19, "unit": "%"}]}, {"smiles": "Nc1ncccc1C(=O)NCCCCCCCCCCCCN1CCNCC1", "note": "[Compound 14, 2-Amino-N-(12-(piperazin-1-yl)dodecyl)nicotinamide]", "values": [{"measurement": "viability at 1 µM", "setting": "[5]", "value": 43.1, "unit": "%"}, {"measurement": "viability at 10 µM", "setting": "[5]", "value": 45.4, "unit": "%"}, {"measurement": "viability at 30 µM", "setting": "[5]", "value": 36.8, "unit": "%"}, {"measurement": "viability at 50 µM", "setting": "[5]", "value": 30.5, "unit": "%"}, {"measurement": "viability at 1 µM", "setting": "[2]; Homo sapiens, Malme-3M, 1 μM", "value": 43.7, "unit": "%"}, {"measurement": "viability at 10 µM", "setting": "[2]; Homo sapiens, Malme-3M, 10 μM", "value": 31.2, "unit": "%"}, {"measurement": "viability at 30 µM", "setting": "[2]; Homo sapiens, Malme-3M, 30 μM", "value": 16.3, "unit": "%"}, {"measurement": "viability at 50 µM", "setting": "[2]; Homo sapiens, Malme-3M, 50 μM", "value": 15.9, "unit": "%"}, {"measurement": "Collagen deposition (Masson's trichrome, Sirius red)", "setting": "[6]", "value": "significantly reduced"}, {"measurement": "Expression of α-SMA in lung tissue (IHC)", "setting": "[6]", "value": "significantly suppressed"}]}, {"smiles": "Nc1nc(NC(=O)CCCCCCCCCCCCN2CCN(CCO)CC2)nc2nc[nH]c12", "note": "[Compound 15, 12-[4-(2-hydroxyethyl)piperazin-1-yl]dodecyl-N-(6-aminopurine-2-yl) carboxamide]", "values": [{"measurement": "viability at 1 µM", "setting": "[1]", "value": 31.7, "unit": "%"}, {"measurement": "viability at 10 µM", "setting": "[1]", "value": 30, "unit": "%"}, {"measurement": "viability at 30 µM", "setting": "[1]", "value": 30.6, "unit": "%"}, {"measurement": "viability at 50 µM", "setting": "[1]", "value": 30.3, "unit": "%"}, {"measurement": "viability at 1 µM", "setting": "[5]", "value": 40.9, "unit": "%"}, {"measurement": "viability at 10 µM", "setting": "[5]", "value": 42.8, "unit": "%"}, {"measurement": "viability at 30 µM", "setting": "[5]", "value": 44.1, "unit": "%"}, {"measurement": "viability at 50 µM", "setting": "[5]", "value": 41.5, "unit": "%"}]}, {"smiles": "Nc1ncccc1C(=O)NCCCCCCCCCCCCF", "note": "[Compound 57, 2-Amino-N-(12-fluoro-dodecyl)-nicotinamide]", "values": [{"measurement": "viability at 10 µM", "setting": "[7]", "value": 41.7, "unit": "%"}, {"measurement": "viability at 10 µM", "setting": "[3]; Homo sapiens, KMS-26, 10 μM", "value": 44.4, "unit": "%"}, {"measurement": "viability at 30 µM", "setting": "[3]; Homo sapiens, KMS-26, 30 μM", "value": 43.1, "unit": "%"}, {"measurement": "Number of β-gal-positive cells (SA-β-gal)", "setting": "[8]", "value": "the number of β-gal-positive cells decreased"}, {"measurement": "Collagen deposition (Masson's trichrome, Sirius red)", "setting": "[6]", "value": "significantly reduced"}, {"measurement": "Expression of α-SMA in lung tissue (IHC)", "setting": "[6]", "value": "significantly suppressed"}]}]}
